Measured values as given in article PMC10531311, “Anti-Inflammatory Activities of 8-Benzylaminoxanthines Showing High Adenosine A2A and Dual A1/A2A Receptor Affinity” (International Journal of Molecular Sciences, 2023).
Marks after values point to notes of the source that are not given here. Blank lines part the entries; values can stand above or below the molecule they belong to.

Columns and labels:
[1] = test system: carrageenan-induced paw edema in rats; test: Carrageenan-induced paw edema test; type: in vivo, Wistar rats; details: 20 mg/kg ip; for Change in Edema Volume 1 h / inhibition of edema, first hour: 1 h; for Change in Edema Volume 2 h / inhibition of edema, second hour: 2 h; for Change in Edema Volume 3 h / inhibition of edema, third hour: 3 h
Experimental: The carrageenan test is used to evaluate the anti-inflammatory effect, as the injection of this compound into the hind paw of an animal induces long-lasting edema. The aim of the present study was to evaluate the anti-inflammatory (antiedematous) activity of the compounds tested: 19, 22 and 24. The compounds were administered at a dose of 20 mg/kg of body weight (bw).
The in vivo experiments were carried out on male albino Swiss mice weighing 18–26 g and male Wistar rats weighing 150–180 g. The animals were housed in constant temperature facilities exposed to a 12:12 light-dark cycle and maintained on a standard pellet diet and tap water given ad libitum. The control and experimental groups consisted of 6–8 animals each. The investigated compounds were intraperitoneally (ip) administered in the form of a suspension in 0.5% methylcellulose. Control animals received the equivalent volume of solvent. All procedures were conducted according to the guidelines of ICLAS (International Council on Laboratory Animals Science) and were approved by the Local Ethics Committee of the Jagiellonian University in Kraków.
Rats were divided into four groups, one of them being the control. In order to produce inflammation, 0.1 mL of 1% carrageenan solution in water was injected into the hind paw subplantar tissue of rats, according to the modified method of C. A. Winter and P. Lence. […] Prior to the administration of test substances, paw diameters were measured by dividers and recorded. The investigated compounds were administered at a dose of 20 mg/kg, ip (as a suspension in methylcellulose), prior to carrageenan injection. […] After these administrations, paw diameters were measured at 1, 2 and 3 h. The edema % and edema inhibition % were calculated according to the formulas given below. Edema% = (N′ × 100)/N Edema inhibition% = (N – N′ × 100)/N
N: Paw diameters measured 1, 2 and 3 h after injection of carrageenan to the control group—paw diameters at the beginning.
N′: Paw diameters measured 1, 2 and 3 h after injection of carrageenan to the test groups—paw diameters at the beginning.

[2] = test system: formalin test in mice; test: Formalin test; type: in vivo, albino Swiss mice
Experimental: Injection of formalin into the dorsal surface of the hind paw of a mouse produces a biphasic nocifensive behavioral response; i.e., licking, biting, flinching or lifting of the injected paw. The acute (neurogenic) nociceptive phase lasts for the first 5 min and is followed by a period of little activity for the next 10 min. The first phase of the test is directly associated with nociceptor stimulation and the development of neurogenic inflammation. The second (late) phase occurs between 15 and 30 min after formalin injection. The second phase depends on peripheral inflammation and the central sensitization of pain. Since this phase reflects the activation of inflammatory processes, the compounds active in this phase of the experiment also have an anti-inflammatory effect. The tested compounds 19, 22 and 24, were investigated in three doses: 10, 20 and 40 mg/kg bw. ASA (acetylsalicylic acid) was used as a reference compound and administered in doses of 50, 100 and 200 mg/kg. […] The strongest effect in this assay was produced by 24. […] In addition, this anti-nociceptive and anti-inflammatory effect was approximately 13.8 times greater than that observed for the reference compound (ASA). […] ASA also attenuated statistically significant pain responses in the late phases of the formalin test. […] The in vivo experiments were carried out on male albino Swiss mice weighing 18–26 g and male Wistar rats weighing 150–180 g. The animals were housed in constant temperature facilities exposed to a 12:12 light-dark cycle and maintained on a standard pellet diet and tap water given ad libitum. The control and experimental groups consisted of 6–8 animals each. The investigated compounds were intraperitoneally (ip) administered in the form of a suspension in 0.5% methylcellulose. Control animals received the equivalent volume of solvent. All procedures were conducted according to the guidelines of ICLAS (International Council on Laboratory Animals Science) and were approved by the Local Ethics Committee of the Jagiellonian University in Kraków. The mice were pretreated with the test compound or the vehicle and were allowed to acclimate in Plexiglas observation chambers (20 × 30 × 15 cm) for 30 min before the test. Then, 20 μL of a 5% formalin solution was intraplantarly injected into the right hind paw using a 26-gauge needle. Immediately after formalin injection, the animals were individually placed into glass beakers and were observed during the next 30 min. Time (in seconds) spent on licking or biting the injected paw in selected intervals, 0–5, 15–20, 20–25 and 25–30 min, was measured in each experimental group and was an indicator of nociceptive behavior [41]. The ED50 values and their confidence limits were estimated by the method of Litchfield and Wilcoxon.

[3] = Metabolic stability in human liver microsomes; type: in vitro ADME; details: for number of metabolites formed: HLMs, 120 min; for remaining at 2 h: human, liver microsomes, after 120 min of incubation with HLMs, read-out: % Remaining in the Reaction Mixture
Experimental: In our study, the compounds were incubated for 120 min with HLMs, followed by liquid chromatography-mass spectrometry (LC-MS) to identify the formed metabolites.
Human liver microsomes (HLMs) were purchased from Sigma-Aldrich (St. Louis, MO, USA; catalog nr M9066-1VL). The studies with microsomes were supported by MetaSite 6.0.1 software provided by Molecular Discovery Ltd. (Hertfordshire, UK), which allowed for the determination of the most probable sites of metabolism. The compounds were incubated with HLMs for 120 min. After the addition of methanol and centrifugation, the supernatants were analyzed with the Waters ACQUITY™ TQD system (Waters, Milford, CT, USA). All reference drugs used (caffeine, ketoconazole, quinidine and sulfaphenazole) were purchased from Sigma-Aldrich (St. Louis, MO, USA).

number of metabolites formed [3]: two metabolites | remaining at 2 h [3]: > 95%
SMILES: C#CCn1c(=O)c2c(nc(NCc3ccccc3Cl)n2C)n(C)c1=O [compound 19, 8-((2-Chlorobenzyl)amino)-3,7-dimethyl-1-(prop-2-yn-1-yl)-3,7-dihydro-1H-purine-2,6-dione]
Change in Edema Volume 1 h [1]: 0.56 ± 0.13 mL | inhibition of edema, first hour [1]: 28.2% | Change in Edema Volume 2 h [1]: 0.72 ± 0.09 mL | inhibition of edema, second hour [1]: 35.7% | Change in Edema Volume 3 h [1]: 1.10 ± 0.21 mL | inhibition of edema, third hour [1]: 17.3% | Late Phase Inhibition (%) ([2]; mice, 10 mg/kg ip): 26.0% | Licking of the Hind Paw Early Phase (0–5 min) Mean ± SEM ([2]; mice, 10 mg/kg ip): 41.8 ± 5.5 s | Licking of the Hind Paw Late Phase (15–30 min) Mean ± SEM ([2]; mice, 10 mg/kg ip): 88.4 ± 5.6 s | Early Phase Inhibition (%) ([2]; mice, 20 mg/kg ip): 0% | Late Phase Inhibition (%) ([2]; mice, 20 mg/kg ip): 35.7% | Licking of the Hind Paw Early Phase (0–5 min) Mean ± SEM ([2]; mice, 20 mg/kg ip): 48.2 ± 10.0 s | Licking of the Hind Paw Late Phase (15–30 min) Mean ± SEM ([2]; mice, 20 mg/kg ip): 76.8 ± 26.4 s | Early Phase Inhibition (%) ([2]; mice, 40 mg/kg ip): 0% | Late Phase Inhibition (%) ([2]; mice, 40 mg/kg ip): 47.2% | Licking of the Hind Paw Early Phase (0–5 min) Mean ± SEM ([2]; mice, 40 mg/kg ip): 42.6 ± 2.8 s | Licking of the Hind Paw Late Phase (15–30 min) Mean ± SEM ([2]; mice, 40 mg/kg ip): 63.0 ± 6.6 ^b sec

number of metabolites formed [3]: one metabolite | remaining at 2 h [3]: > 90%
SMILES: C#CCn1c(=O)c2c(nc(NCc3c(F)cccc3Cl)n2C)n(C)c1=O [compound 22, 8-((2-Chloro-6-fluorobenzyl)amino)-3,7-dimethyl-1-(prop-2-yn-1-yl)-3,7-dihydro-1H-purine-2,6-dione]
Change in Edema Volume 1 h [1]: 0.49 ± 0.08 mL | inhibition of edema, first hour [1]: 37.1% | Change in Edema Volume 2 h [1]: 0.91 ± 0.05 mL | inhibition of edema, second hour [1]: 18.7% | Change in Edema Volume 3 h [1]: 0.92 ± 0.06 mL | inhibition of edema, third hour [1]: 30.8% | Early Phase Inhibition (%) ([2]; mice, 10 mg/kg ip): 0% | Late Phase Inhibition (%) ([2]; mice, 10 mg/kg ip): 22.8% | Licking of the Hind Paw Early Phase (0–5 min) Mean ± SEM ([2]; mice, 10 mg/kg ip): 41.6 ± 5.4 s | Licking of the Hind Paw Late Phase (15–30 min) Mean ± SEM ([2]; mice, 10 mg/kg ip): 92.2 ± 6.5 s | Licking of the Hind Paw Early Phase (0–5 min) Mean ± SEM ([2]; mice, 20 mg/kg ip): 41.0 ± 8.6 s | Licking of the Hind Paw Late Phase (15–30 min) Mean ± SEM ([2]; mice, 20 mg/kg ip): 78.2 ± 20.3 s | Early Phase Inhibition (%) ([2]; mice, 40 mg/kg ip): 5.8% | Late Phase Inhibition (%) ([2]; mice, 40 mg/kg ip): 48.0% | Licking of the Hind Paw Early Phase (0–5 min) Mean ± SEM ([2]; mice, 40 mg/kg ip): 39.2 ± 1.3 s | Licking of the Hind Paw Late Phase (15–30 min) Mean ± SEM ([2]; mice, 40 mg/kg ip): 62.0 ± 5.2 ^b sec

number of metabolites formed [3]: one metabolite | remaining at 2 h [3]: > 95%
SMILES: C#CCn1c(=O)c2c(nc(NCc3cccc(Br)c3)n2C)n(C)c1=O [compound 24, 8-((3-Bromobenzyl)amino)-3,7-dimethyl-1-(prop-2-yn-1-yl)-3,7-dihydro-1H-purine-2,6-dione]
Change in Edema Volume 1 h [1]: 0.38 ± 0.02 ^a mL | inhibition of edema, first hour [1]: 51.2% | Change in Edema Volume 2 h [1]: 0.63 ± 0.14 ^a mL | inhibition of edema, second hour [1]: 43.8% | Change in Edema Volume 3 h [1]: 0.69 ± 0.01 ^b mL | inhibition of edema, third hour [1]: 48.1% | ED50 ([2]; Mus musculus, mice, II (late) phase, method of Litchfield and Wilcoxon, read-out: calculated ED50 in the formalin test): 9.1 mg/kg | effect, times greater than that of the reference compound (ASA) ([2]; formalin test, from ED50): approximately 13.8 times | Early Phase Inhibition (%) ([2]; mice, 10 mg/kg ip): 0% | Late Phase Inhibition (%) ([2]; mice, 10 mg/kg ip): 48.7% | Licking of the Hind Paw Early Phase (0–5 min) Mean ± SEM ([2]; mice, 10 mg/kg ip): 43.2 ± 6.6 s | Licking of the Hind Paw Late Phase (15–30 min) Mean ± SEM ([2]; mice, 10 mg/kg ip): 61.2 ± 6.4 ^b sec | Early Phase Inhibition (%) ([2]; mice, 20 mg/kg ip): 24.5% | Late Phase Inhibition (%) ([2]; mice, 20 mg/kg ip): 82.9% | Licking of the Hind Paw Early Phase (0–5 min) Mean ± SEM ([2]; mice, 20 mg/kg ip): 31.4 ± 5.0 s | Licking of the Hind Paw Late Phase (15–30 min) Mean ± SEM ([2]; mice, 20 mg/kg ip): 20.4 ± 10.6 ^d sec | Early Phase Inhibition (%) ([2]; mice, 40 mg/kg ip): 26.0% | Late Phase Inhibition (%) ([2]; mice, 40 mg/kg ip): 89.7% | Licking of the Hind Paw Early Phase (0–5 min) Mean ± SEM ([2]; mice, 40 mg/kg ip): 30.8 ± 6.7 s | Licking of the Hind Paw Late Phase (15–30 min) Mean ± SEM ([2]; mice, 40 mg/kg ip): 12.2 ± 3.3 ^d sec
